{
  "source": "paper PMC6029141",
  "about": "“Population Pharmacokinetics of Vancomycin in Chinese ICU Neonates: Initial Dosage Recommendations” (Frontiers in Pharmacology, 2018)",
  "key": {"[1]": {"experiment": "Vancomycin trough and peak concentrations, fluorescence polarization immunoassay", "type": "in vivo, Chinese neonates", "conditions": "after at least four doses, 10–15 mg/kg q8h or q12h, FPIA", "protocol": "Concentrations of vancomycin were determined using the fluorescence polarization immunoassay with an ARCHITECT i2000SR (Abbott Laboratories, Chicago, IL, USA). The limit of detection was 1 mg/L, and the calibration range of this assay was 3 to 50 mg/L. The intra-day and inter-day coefficients of variation (CVs) were all < 20%."}, "[2]": {"conditions": "cited from earlier work", "source_text": "The maximum a posteriori Bayesian estimation method has already been used to support vancomycin dosing decisions in adults (Deng et al., [2013]; Jacqz-Aigrain et al., [2015]) and children (Le et al., [2014]). To obtain accurate estimation with this method for individualized therapy, it is crucial that reliable population pharmacokinetic characteristics are known for the target patients. […] (H ..."}, "[3]": {"experiment": "Population pharmacokinetic modeling of vancomycin (NONMEM, FOCE-I, one-compartment, first-order elimination)", "conditions": "for θ4, volume of distribution V / θ5, exponent of body weight on V / θ1, clearance CL: final model", "description": "Chinese neonates who received vancomycin in the neonatal ICU at Shanghai Children's Hospital (Shanghai, China) between January 2013 and December 2016 were enrolled. Patients included in this study were neonates with PMA ≤ 48 weeks for preterm neonates and with postnatal age (PNA) ≤ 28 days for term neonates. All patients were treated with vancomycin for at least 3 days, and at least one vancomycin concentration was assayed. Patients with extracorporeal membrane oxygenation or continuous renal replacement therapy were excluded from the current study. The following information was retrospectively collected from electronic medical records: gestational age (GA), PMA, PNA, body weight (WT), dosing history and concentration of vancomycin, serum creatinine (Scr) levels, clinical laboratory tests of other renal and hepatic functions, and co-administered medications.\nThe dose of vancomycin (Vancocin, Lilly, S.A, Suzhou, China) was 10–15 mg/kg, which was administrated every 8 h (q8h) or every 12 h (q12h) with a 2-h infusion, in accordance with local protocols. Blood samples were collected 1 h after completion of drug infusion (peak concentration) or half an hour before the start of vancomycin administration (trough concentration) for each patient. Trough and peak concentrations were obtained after at least four repeated doses. Potential outlier data points (observations) were identified by employing conditional weighted residual (CWRES) results outside a range of ± 6 (Byon et al., [2013]).\nPopulation pharmacokinetic modeling was performed using the NONMEM program (Version 7.4; Icon Inc, PA, USA) compiled with gFortran (Version 4.9.2; http://www.gfortran.org). R (Version 3.3.1; http://www.r-project.org) and the Xpose package (Version 4.5.3; http://xpose.sourceforge.net) were used for visual diagnosis. The first-order conditional estimation method with η–ε interaction (FOCE-I) was used throughout the model-building procedure (Wählby et al., [2001]).\nThe vancomycin concentration data were fitted by the one or two compartment with a first-order elimination model. NONMEM subroutines were specified as ADVAN1-TRANS2 or ADVAN3-TRANS4, respectively.\nAn exponential model (Equation 1) was used to account for inter-individual variability (IIV):\nResidual unexplained variability was tested by an additive model (Equation 2), exponential model (Equation 3), or a combined additive and exponential model (Equation 4):\nFour different models based on allometric scaling were tested using Equation (5): (5) Pi= TV(P)×(COV/COVmedian)^θ×MF\nThe robustness of the model was assessed using a nonparametric bootstrap (Ette, [1997]), with repetition of 2000 NONMEM runs of the final model. The bootstrap median parameter values and the percentile bootstrap 95% confidence intervals were compared with the respective values estimated from the final model."}, "[4]": {"conditions": "Model III, WT-dependent exponent model"}, "[5]": {"conditions": "Model IV, age-dependent exponent model"}},
  "note": "Read-outs that look alike come from different tables or passages of the source.",
  "data": [
    {"smiles": "CN[C@H](CC(C)C)C(=O)N[C@H]1C(=O)N[C@@H](CC(N)=O)C(=O)N[C@H]2C(=O)N[C@H]3C(=O)N[C@H](C(=O)N[C@H](C(=O)O)c4cc(O)cc(O)c4-c4cc3ccc4O)[C@H](O)c3ccc(c(Cl)c3)Oc3cc2cc(c3O[C@@H]2O[C@H](CO)[C@@H](O)[C@H](O)[C@H]2O[C@H]2C[C@](C)(N)[C@H](O)[C@H](C)O2)Oc2ccc(cc2Cl)[C@H]1O", "note": "[vancomycin]", "values": [
      {"measurement": "Peak concentration, median (range)", "setting": "[1]; 1 h after completion of 2-h infusion, 90 peak samples", "result": "20.3 (4.09–51.9) mg/L"},
      {"measurement": "Peak concentration", "setting": "[1]; column 'Modeling group' (value ± spread), 1 h after completion of 2-h infusion, 90 peak samples", "result": "22.3 ± 11.0", "unit": "mg/L"},
      {"measurement": "Trough concentration", "setting": "[1]; column 'Modeling group' (value ± spread), half an hour before administration, 2-h infusion, 75 trough samples, 80 neonates", "result": "11.2 ± 7.92", "unit": "mg/L"},
      {"measurement": "Trough concentration, median (range)", "setting": "[1]; half an hour before administration, 2-h infusion, 75 trough samples", "result": "9.15 (3.14–42.9) mg/L"},
      {"measurement": "clearance (CL)", "setting": "[2]; adult Caucasian patients, first of two values, ref Guay et al., [1993], Sánchez et al., [2010]", "result": "4.03 ± 1.7", "unit": "L/h"},
      {"measurement": "clearance (CL)", "setting": "[2]; adult Caucasian patients, second of two values, ref Guay et al., [1993], Sánchez et al., [2010]", "result": "5.83 ± 2.39", "unit": "L/h"},
      {"measurement": "clearance (CL)", "setting": "[2]; adult Chinese patients, second of two values, ref He et al., [2014], Lin et al., [2015]", "result": "6.06 ± 2.46", "unit": "L/h"},
      {"measurement": "average clearance across all three populations", "setting": "[2]; neonatal patient with weight of 3 kg and PMA of 40 weeks, Caucasian, Japanese, Malaysian neonates, ref Seay et al., [1994] to Lo et al., [2010] (b5)", "result": "0.08 to 0.50", "unit": "L/h"},
      {"measurement": "k, exponent for body weight (RSE%)", "setting": "[3]; Model I, simple exponent model", "result": "1.57 (10.9%)"},
      {"measurement": "CLp typical value of apparent clearance (RSE%)", "setting": "[3]; Model I, simple exponent model, MF = 1", "result": "0.319 (5.1%) L/h"},
      {"measurement": "Hill (RSE%)", "setting": "[3]; Model II, maturation model", "result": "4.45 (105%)"},
      {"measurement": "TM50, age at which clearance maturation reaches 50% of that of adults (RSE%)", "setting": "[3]; Model II, maturation model", "result": "46.9 (102%)"},
      {"measurement": "CLp typical value of apparent clearance (RSE%)", "setting": "[3]; Model II, maturation model, k fixed 0.75", "result": "0.911 (235%) L/h"},
      {"measurement": "k50, body weight at which there is a 50 % decrease in the kmax (RSE%)", "setting": "[3]; Model III", "result": "12.7 (53.1%)"},
      {"measurement": "kmax, maximum decrease of the exponent (RSE%)", "setting": "[3]; Model III", "result": "1.08 (25%)"},
      {"measurement": "θ0, exponent at a theoretical WT of 0 kg (RSE%)", "setting": "[3]; Model III", "result": "1.57 (10.9%)"},
      {"measurement": "CLp typical value of apparent clearance (RSE%)", "setting": "[3]; [4]", "result": "0.319 (5.1%) L/h"},
      {"measurement": "Hill (RSE%)", "setting": "[3]; [4]", "result": "23.6 (17.2%)"},
      {"measurement": "k50, age at which there is a 50 % decrease in the kmax (RSE%)", "setting": "[3]; Model IV", "result": "62.3 (22%)"},
      {"measurement": "kmax, maximum decrease of the exponent (RSE%)", "setting": "[3]; Model IV", "result": "1.08 (25%)"},
      {"measurement": "θ0, exponent at age at birth (RSE%)", "setting": "[3]; Model IV", "result": "1.57 (10.9%)"},
      {"measurement": "CLp typical value of apparent clearance (RSE%)", "setting": "[3]; [5]", "result": "0.319 (5.1%) L/h"},
      {"measurement": "Hill (RSE%)", "setting": "[3]; [5]", "result": "60.7 (23.4%)"},
      {"measurement": "θ4, volume of distribution V", "setting": "[3]; NONMEM estimate, WT 2.9 kg", "result": 2.63, "unit": "L"},
      {"measurement": "θ5, exponent of body weight on V", "setting": "[3]; NONMEM estimate, [WT(kg)/2.9]^θ5", "result": 1.05},
      {"measurement": "θ1, clearance CL", "setting": "[3]; NONMEM estimate, typical neonate WT 2.9 kg, Scr 23.3 μmol/L", "result": 0.309, "unit": "L/h"},
      {"measurement": "θ1, clearance CL", "setting": "[3]; bootstrap median, 2000 runs", "result": 0.308, "unit": "L/h"},
      {"measurement": "θ4, volume of distribution V", "setting": "[3]; bootstrap median, 2000 runs", "result": 2.62, "unit": "L"},
      {"measurement": "θ5, exponent of body weight on V", "setting": "[3]; bootstrap median, 2000 runs", "result": 1.06}
    ]}
  ]
}
